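Where inhibition never reached the appropriate level, the endpoint shown equals the highest concentration tested. Otherwise, values were interpolated linearly from a five-concentration, 48-hour dose response in 96-well plates. GI50: concentration for 50% inhibition of growth. The concentration for full growth arrest is given as TGI.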
Legend:
Test in all cases: growth of human tumour cells (NCI), 48 h
UACC-257 melanoma = test system: UACC-257 melanoma
HT29 colon = test system: HT29 colon
SK-OV-3 ovarian = test system: SK-OV-3 ovarian
HCT-15 colon = test system: HCT-15 colon
RPMI-8226 leukemia = test system: RPMI-8226 leukemia
HCC-2998 colon = test system: HCC-2998 colon
SK-MEL-5 melanoma = test system: SK-MEL-5 melanoma
OVCAR-5 ovarian = test system: OVCAR-5 ovarian
UACC-62 melanoma = test system: UACC-62 melanoma
NCI-H226 lung = test system: NCI-H226 lung
MOLT-4 leukemia = test system: MOLT-4 leukemia
HS 578T breast = test system: HS 578T breast
DU-145 prostate = test system: DU-145 prostate
RXF 393 renal = test system: RXF 393 renal
OVCAR-3 ovarian = test system: OVCAR-3 ovarian
SF-295 CNS = test system: SF-295 CNS
A549 NSCLC = test system: A549 NSCLC
CCRF-CEM leukemia = test system: CCRF-CEM leukemia
NCI-H23 lung = test system: NCI-H23 lung
SK-MEL-28 melanoma = test system: SK-MEL-28 melanoma
SNB-19 CNS = test system: SNB-19 CNS
HOP-92 NSCLC = test system: HOP-92 NSCLC
NCI-H460 lung = test system: NCI-H460 lung
KM12 colon = test system: KM12 colon
MALME-3M melanoma = test system: MALME-3M melanoma
UO-31 renal = test system: UO-31 renal
MCF7 breast = test system: MCF7 breast
SF-539 CNS = test system: SF-539 CNS
SNB-75 CNS = test system: SNB-75 CNS
SK-MEL-2 melanoma = test system: SK-MEL-2 melanoma
ACHN renal = test system: ACHN renal
NCI-H522 lung = test system: NCI-H522 lung
BT-549 breast = test system: BT-549 breast
U251 CNS = test system: U251 CNS
T-47D breast = test system: T-47D breast
HCT-116 colon = test system: HCT-116 colon
COLO 205 colon = test system: COLO 205 colon
LOX IMVI melanoma = test system: LOX IMVI melanoma
786-0 renal = test system: 786-0 renal
TK-10 renal = test system: TK-10 renal
OVCAR-4 ovarian = test system: OVCAR-4 ovarian
MDA-MB-231 breast = test system: MDA-MB-231 breast
OVCAR-8 ovarian = test system: OVCAR-8 ovarian
SR leukemia = test system: SR leukemia
NCI/ADR-RES ovarian = test system: NCI/ADR-RES ovarian
A498 renal = test system: A498 renal
SW-620 colon = test system: SW-620 colon
MDA-MB-435 = test system: MDA-MB-435
EKVX NSCLC = test system: EKVX NSCLC
PC-3 prostate = test system: PC-3 prostate
SF-268 CNS = test system: SF-268 CNS
K-562 leukemia = test system: K-562 leukemia
IGROV1 ovarian = test system: IGROV1 ovarian
CAKI-1 renal = test system: CAKI-1 renal
SN12C renal = test system: SN12C renal

For `CC(C)(O)C#Cc1ccc(/C=C/C(=O)c2ccccc2)s1`, the GI50 (UACC-257 melanoma) was 18.4 µM, the TGI (UACC-257 melanoma) was 32.4 µM and the GI50 (HT29 colon) was 13.5 µM. For the same compound, the TGI (HT29 colon) was 29.9 µM, the GI50 (SK-OV-3 ovarian) was 16.5 µM and the TGI (SK-OV-3 ovarian) was 30.1 µM. For the same compound, the GI50 (HCT-15 colon) was 15.7 µM, the TGI (HCT-15 colon) was 30.8 µM and the GI50 (RPMI-8226 leukemia) was 3.07 µM. It also gave a TGI (RPMI-8226 leukemia) of 11.5 µM, a GI50 (HCC-2998 colon) of 16.6 µM and a TGI (HCC-2998 colon) of 30.7 µM. It also gave a GI50 (SK-MEL-5 melanoma) of 16.1 µM, a TGI (SK-MEL-5 melanoma) of 30.5 µM and a GI50 (OVCAR-5 ovarian) of 16.5 µM. The TGI (OVCAR-5 ovarian) was 32 µM, the GI50 (UACC-62 melanoma) was 13.7 µM and the TGI (UACC-62 melanoma) was 26.6 µM. For the same compound, the GI50 (NCI-H226 lung) was 18.8 µM, the TGI (NCI-H226 lung) was 42.3 µM and the GI50 (MOLT-4 leukemia) was 16.8 µM. It also gave a TGI (MOLT-4 leukemia) of 43.6 µM, a GI50 (HS 578T breast) of 25.5 µM and a TGI (HS 578T breast) of 79.7 µM. The GI50 (DU-145 prostate) was 14.9 µM, the TGI (DU-145 prostate) was 28.1 µM and the GI50 (RXF 393 renal) was 14.7 µM. The TGI (RXF 393 renal) was 28.7 µM, the GI50 (OVCAR-3 ovarian) was 17 µM and the TGI (OVCAR-3 ovarian) was 31.5 µM. The GI50 (SF-295 CNS) was 17.7 µM, the TGI (SF-295 CNS) was 35.5 µM and the GI50 (A549 NSCLC) was 16.5 µM. It also gave a TGI (A549 NSCLC) of 30.5 µM, a GI50 (CCRF-CEM leukemia) of 13.6 µM and a TGI (CCRF-CEM leukemia) of 64.9 µM. For the same compound, the GI50 (NCI-H23 lung) was 16.9 µM, the TGI (NCI-H23 lung) was 34.7 µM and the GI50 (SK-MEL-28 melanoma) was 16 µM. It also gave a TGI (SK-MEL-28 melanoma) of 30.2 µM, a GI50 (SNB-19 CNS) of 16.9 µM and a TGI (SNB-19 CNS) of 31.7 µM. The GI50 (HOP-92 NSCLC) was 13.6 µM, the TGI (HOP-92 NSCLC) was 27.1 µM and the GI50 (NCI-H460 lung) was 17.3 µM. For the same compound, the TGI (NCI-H460 lung) was 33.5 µM, the GI50 (KM12 colon) was 4.37 µM and the TGI (KM12 colon) was 14.4 µM. It also gave a GI50 (MALME-3M melanoma) of 16.4 µM, a TGI (MALME-3M melanoma) of 36.1 µM and a GI50 (UO-31 renal) of 14.5 µM. For the same compound, the TGI (UO-31 renal) was 27.6 µM, the GI50 (MCF7 breast) was 3.63 µM and the TGI (MCF7 breast) was 16.7 µM. The GI50 (SF-539 CNS) was 15.8 µM, the TGI (SF-539 CNS) was 29.2 µM and the GI50 (SNB-75 CNS) was 13.7 µM. For the same compound, the TGI (SNB-75 CNS) was 27 µM, the GI50 (SK-MEL-2 melanoma) was 17.6 µM and the TGI (SK-MEL-2 melanoma) was 33.9 µM. It also gave a GI50 (ACHN renal) of 17 µM, a TGI (ACHN renal) of 30.7 µM and a GI50 (NCI-H522 lung) of 16 µM. For the same compound, the TGI (NCI-H522 lung) was 32.7 µM, the GI50 (BT-549 breast) was 16.2 µM and the TGI (BT-549 breast) was 30.8 µM. The GI50 (U251 CNS) was 13.6 µM, the TGI (U251 CNS) was 26.5 µM and the GI50 (T-47D breast) was 14.5 µM. For the same compound, the TGI (T-47D breast) was 67.9 µM, the GI50 (HCT-116 colon) was 4.08 µM and the TGI (HCT-116 colon) was 15.4 µM. For the same compound, the GI50 (COLO 205 colon) was 16.9 µM, the TGI (COLO 205 colon) was 32.7 µM and the GI50 (LOX IMVI melanoma) was 13.8 µM. The TGI (LOX IMVI melanoma) was 26.7 µM, the GI50 (786-0 renal) was 14.8 µM and the TGI (786-0 renal) was 28.8 µM. The GI50 (TK-10 renal) was 19.4 µM, the TGI (TK-10 renal) was 35.8 µM and the GI50 (OVCAR-4 ovarian) was 17.1 µM. It also gave a TGI (OVCAR-4 ovarian) of 39 µM, a GI50 (MDA-MB-231 breast) of 16.7 µM and a TGI (MDA-MB-231 breast) of 32.3 µM. It also gave a GI50 (OVCAR-8 ovarian) of 15.9 µM, a TGI (OVCAR-8 ovarian) of 29.9 µM and a GI50 (SR leukemia) of 3.85 µM. It also gave a TGI (SR leukemia) of 13.8 µM, a GI50 (NCI/ADR-RES ovarian) of 18.3 µM and a TGI (NCI/ADR-RES ovarian) of 39 µM. It also gave a GI50 (A498 renal) of 17.7 µM, a TGI (A498 renal) of 32.2 µM and a GI50 (SW-620 colon) of 19.5 µM. It also gave a TGI (SW-620 colon) of 40.9 µM, a GI50 (MDA-MB-435) of 12.6 µM and a TGI (MDA-MB-435) of 26.4 µM. For the same compound, the GI50 (EKVX NSCLC) was 17.9 µM, the TGI (EKVX NSCLC) was 32 µM and the GI50 (PC-3 prostate) was 13.6 µM. The TGI (PC-3 prostate) was 29.7 µM, the GI50 (SF-268 CNS) was 16.7 µM and the TGI (SF-268 CNS) was 32.8 µM. For the same compound, the GI50 (K-562 leukemia) was 16.5 µM, the TGI (K-562 leukemia) was 56.3 µM and the GI50 (IGROV1 ovarian) was 14.7 µM. It also gave a TGI (IGROV1 ovarian) of 27.8 µM, a GI50 (CAKI-1 renal) of 16.9 µM and a TGI (CAKI-1 renal) of 30.6 µM. The GI50 (SN12C renal) was 18.1 µM and the TGI (SN12C renal) was 32.1 µM.

Source: PubChem BioAssay (NCI)
